Biological target: T1, complex I (NADH dehydrogenase) (Mus musculus, UniProt P03888+Q91WD5+Q91YT0+Q9DC70)
T1 construct: gene Ndufs2; native respiratory complex in intact isolated mouse liver mitochondria; with NADH dehydrogenase [ubiquinone] flavoprotein 2, mitochondrial; NADH-ubiquinone oxidoreductase 75 kDa subunit, mitochondrial; NADH dehydrogenase [ubiquinone] iron-sulfur protein 3, mitochondrial; NADH dehydrogenase [ubiquinone] iron-sulfur protein 8, mitochondrial; NADH-ubiquinone oxidoreductase chain 2; NADH-ubiquinone oxidoreductase chain 3; NADH-ubiquinone oxidoreductase chain 4; NADH-ubiquinone oxidoreductase chain 4L; NADH-ubiquinone oxidoreductase chain 5; NADH-ubiquinone oxidoreductase chain 6
Assay: NADH:DCIP reduction, absorbance […] nm
Type: biochemical
Settings: isolated mouse liver mitochondria; DCIP as artificial electron acceptor, glycylglycine pH 8.5; turnover only

NC(=O)C1=CN([C@@H]2O[C@H](COP(=O)(O)OP(=O)(O)OC[C@H]3O[C@@H](n4cnc5c(N)ncnc54)[C@H](O)[C@@H]3O)[C@@H](O)[C@H]2O)C=CC1 [NADH]
NADH:DCIP reduction, absorbance 600 nm: artificial electron acceptor dichlorophenolindophenol (DCIP) in the presence of NADH

Reference: article PMC3675020, “Repositioning of Verrucosidin, a Purported Inhibitor of Chaperone Protein GRP78, as an Inhibitor of Mitochondrial Electron Transport Chain Complex I” (PLoS ONE, 2013)
